Measurements from patent US12012411B2, “Viral replication inhibitors” (Katholieke Universiteit Leuven, priority 2011, dated 2024).

Columns and labels:
[1] = system: DENV-1 Djibouti strain D1/H/IMTSSA/98/606; test: Antiviral activity against DENV-1 in Vero-B cells (viral RNA load by RT-qPCR); type: cell-based, Dengue virus; conditions: Dengue virus, DENV1, Vero B
in vitro = conditions: African green monkey; for CC50 at 4 days: uninfected quiescent Vero-B cells
[2] = system: DENV-4 strain Dak HD 34 460; test: Antiviral activity against DENV-4 in Vero-B cells (viral RNA load by RT-qPCR); type: cell-based, Dengue virus; conditions: Dengue virus, DENV4, Vero B
[3] = system: DENV-3 strain H87 prototype; test: Antiviral activity against DENV-3 in Vero-B cells (viral RNA load by RT-qPCR); type: cell-based, Dengue virus; conditions: Dengue virus, DENV3, Vero B
DENV-2 NGC = test: Antiviral activity against DENV-2 NGC in Vero-B cells (viral RNA load by RT-qPCR); type: cell-based, Dengue virus; conditions: Dengue virus, DENV2, Vero B, DENV-2 in Vero-B cells; inhibition of viral RNA replication by 50% (Table 3)

| Structure (SMILES) | EC50 [1] | CC50 at 4 days (in vitro) | EC50 [2] | EC50 [3] | EC50 (DENV-2 NGC) | CC50 (in vitro) |
| --- | --- | --- | --- | --- | --- | --- |
| COc1cc(NC(C(=O)c2c[nH]c3cc(F)ccc23)c2ccccc2)cc(OCCO)c1 (stereo not drawn) [CPD-316] | 0.39 µM | 29 µM | 4.42 µM | 0.32 µM | 0.02 µM | – |
| COc1cccc(NC(C(=O)c2cn(CCCO)c3ccccc23)c2ccccc2)c1 (stereo not drawn) [CPD-128] | 7.5 µM | – | – | 18.4 µM | 0.56 µM | 63 µM |
| COc1cccc(NC(C(=O)c2c[nH]c3ccccc23)c2c(F)cc(C#N)cc2F)c1 (stereo not drawn) [CPD-133] | 2.25 µM | 19 µM | – | 4.17 µM | 0.04 µM | – |
| CCOc1ncc(NC(C(=O)c2c[nH]c3ccccc23)c2ccccc2)cc1OC (stereo not drawn) [CPD-258] | – | 72 µM | 9.42 µM | – | 1.47 µM | – |
| CCOc1ccc(NC(C(=O)c2c[nH]c3ccccc23)c2ccccc2)cc1OC (stereo not drawn) [CPD-173] | 30.7 µM | 69 µM | – | – | 0.02 µM | – |
| COc1cccc(NC(C(=O)c2c[nH]c3cc(C)ccc23)c2ccccc2)c1 (stereo not drawn) [CPD-122] | 3.64 µM | 16 µM | – | 8.25 µM | 0.02 µM | – |
| COc1cc(CO)cc(NC(C(=O)c2cn(C)c3ccccc23)c2ccccc2)c1 (stereo not drawn) [CPD-307] | 2.43 µM | > 124 µM | 11.5 µM | – | 0.18 µM | – |
| COc1cc(NC(C(=O)c2c[nH]c3ccccc23)c2ccccc2)nc(OC)n1 (stereo not drawn) [CPD-087] | 6.05 µM | > 128 µM | – | – | 0.8 µM | – |
| COc1cc(O)cc(NC(C(=O)c2c[nH]c3ccccc23)c2ccccc2)c1 (stereo not drawn) [CPD-359] | – | 52 µM | 5.48 µM | – | 0.1 µM | – |
| COc1cccc(NC(C(=O)c2c[nH]c3ncc(F)cc23)c2ccccc2)c1 (stereo not drawn) [CPD-227] | – | > 124 µM | 7.45 µM | 2.91 µM | 0.27 µM | – |
| COc1cccc(NC(C(=O)c2c[nH]c3cc(Cl)ccc23)c2cc(C)on2)c1 (stereo not drawn) [CPD-116] | 4.19 µM | 13 µM | – | 9.3 µM | 0.14 µM | – |
| COc1cc(CO)cc(NC(C(=O)c2c[nH]c3cc(F)ccc23)c2cccnc2)c1 (stereo not drawn) [CPD-344] | – | 94 µM | 25.9 µM | 0.79 µM | 0.09 µM | – |
| COc1cccc(NC(C(=O)c2c[nH]c3ncccc23)c2ccccc2)c1 (stereo not drawn) [CPD-194] | – | 61 µM | 18.7 µM | – | 0.94 µM | – |
| COc1cccc(NC(C(=O)c2nn(CCO)c3ccccc23)c2ccccc2)c1 (stereo not drawn) [CPD-303] | 3.26 µM | – | – | – | 0.52 µM | 71 µM |
| COc1cc(NC(C(=O)c2c[nH]c3c(C)cccc23)c2ccc(F)cc2)cc(OC)c1 (stereo not drawn) [CPD-341] | – | 12 µM | 3.36 µM | 0.05 µM | 0.002 µM | – |
| COc1cccc(NC(C(=O)c2c[nH]c3ccccc23)c2ccccc2F)c1 (stereo not drawn) [CPD-144] | 2.89 µM | 20 µM | – | 3.08 µM | 0.06 µM | – |
| COc1cccc(NC(C(=O)c2cn(S(=O)(=O)C3CCOC3)c3ccccc23)c2ccccc2)c1 (stereo not drawn) [CPD-208] | – | > 102 µM | 6.95 µM | 6.65 µM | 0.37 µM | – |
| COc1cc(NC(C(=O)c2c[nH]c3ccc(F)cc23)c2ccccc2)cc(OCCO)c1 (stereo not drawn) [CPD-355] | – | 44 µM | 6.17 µM | 0.3 µM | 0.03 µM | – |
| COc1cc(NC(C(=O)c2c[nH]c3ccccc23)c2ccccc2)ccc1Cl (stereo not drawn) [CPD-004] | 4.53 µM | 11 µM | – | 8.55 µM | 0.19 µM | – |
| COc1cccc(NC(C(=O)c2cn(S(C)(=O)=O)c3ccc(F)cc23)c2ccccc2)c1 (stereo not drawn) [CPD-212] | – | > 110 µM | 2.64 µM | 5.9 µM | 0.42 µM | – |

| Structure (SMILES) | EC50 [1] | CC50 at 4 days (in vitro) | EC50 [2] | EC50 [3] | EC50 (DENV-2 NGC) | CC50 (in vitro) |
| --- | --- | --- | --- | --- | --- | --- |
| COc1cccc(NC(C(=O)c2c[nH]c3nc(C)ccc23)c2ccccc2)c1 (stereo not drawn) [CPD-225] | – | > 134 µM | 1.16 µM | 2.99 µM | 0.38 µM | – |
| COc1cccc(NC(C(=O)c2c[nH]c3c(Cl)cccc23)c2ccc(C#N)cc2)c1 (stereo not drawn) [CPD-120] | 2.31 µM | 11 µM | – | 5.18 µM | 0.02 µM | – |
| COc1cc(NC(C(=O)c2c[nH]c3ccccc23)c2ccccc2)c(F)c(OC)c1 (stereo not drawn) [CPD-345] | – | 106 µM | 2.94 µM | 1.73 µM | 0.21 µM | – |
| COc1cccc(NC(C(=O)c2c[nH]c3c(F)cccc23)c2ccc(OC)nc2)c1 (stereo not drawn) [CPD-155] | 2.94 µM | 15 µM | – | – | 0.08 µM | – |
| COC(=O)c1ccc2[nH]cc(C(=O)C(Nc3cccc(OC)c3)c3ccccc3)c2c1 (stereo not drawn) [CPD-142] | 1.71 µM | 13 µM | – | 3.97 µM | 0.1 µM | – |
| COc1cccc(NC(C(=O)c2c[nH]c3cc(F)ccc23)c2cnc(OC)cn2)c1 (stereo not drawn) [CPD-297] | – | 22 µM | 6.68 µM | 0.57 µM | 0.03 µM | – |
| COc1cc(NC(C(=O)c2c[nH]c3ccccc23)c2ccc(C#N)cc2)ccn1 (stereo not drawn) [CPD-061] | – | 59 µM | – | – | 1.71 µM | – |
| COc1cccc(NC(C(=O)c2c[nH]c3ccccc23)c2cccnc2OC)c1 (stereo not drawn) [CPD-215] | – | 14 µM | – | – | 0.16 µM | – |
| COC(=O)c1ccc2c(C(=O)C(Nc3cccc(OC)c3)c3ccccc3)c[nH]c2c1 (stereo not drawn) [CPD-085] | – | 16 µM | – | – | 0.07 µM | – |
| COc1cccc(NC(C(=O)c2c[nH]c3ccc(S(=O)(=O)N(C)C)cc23)c2ccccc2)c1 (stereo not drawn) [CPD-129] | – | > 108 µM | – | – | 1.09 µM | – |
| COc1cc(NC(C(=O)c2csc3ccccc23)c2cn3ccccc3n2)ccn1 (stereo not drawn) [CPD-199] | – | > 120 µM | – | – | 24.9 µM | – |
| COc1cccc(NC(C(=O)c2c[nH]c3ccc(OC)cc23)c2ccccc2)c1 (stereo not drawn) [CPD-092] | – | 19 µM | 6.73 µM | 0.93 µM | 0.1 µM | – |
| COc1cc(C)nc(NC(C(=O)c2c[nH]c3ccccc23)c2ccccc2)n1 (stereo not drawn) [CPD-062] | – | > 134 µM | – | – | 0.58 µM | – |
| COc1cc(NC(C(=O)c2cn(CCCO)c3ccccc23)c2ccccc2)cc(OC)c1 (stereo not drawn) [CPD-210] | 1.03 µM | – | – | – | 0.2 µM | 13 µM |
| COc1cccc(NC(C(=O)c2c[nH]c3ccccc23)c2ccc(N(C)C)nc2)c1 (stereo not drawn) [CPD-239] | – | > 125 µM | – | – | 22.7 µM | – |
| COc1cccc(NC(C(=O)c2c[nH]c3ccccc23)c2[nH]cnc2C)c1 (stereo not drawn) [CPD-125] | – | > 138 µM | – | – | 7.19 µM | – |
| COc1cc(NC(C(=O)c2c[nH]c3ccccc23)c2cscn2)ccn1 (stereo not drawn) [CPD-082] | – | 109 µM | – | – | 61.9 µM | – |
| COCCn1cc(C(=O)C(Nc2cccc(OC)c2)c2ccccc2)c2ccccc21 (stereo not drawn) [CPD-136] | – | – | – | – | 0.22 µM | > 120 µM |
| CCOc1ccc(NC(C(=O)c2c[nH]c3ccccc23)c2ccccc2)cc1CO (stereo not drawn) [CPD-192] | – | 50 µM | – | – | 5.62 µM | – |
| COc1cccc(NC(C(=O)c2nn(C)c3ccc(F)cc23)c2ccccc2)c1 (stereo not drawn) [CPD-270] | 1.57 µM | > 128 µM | – | 1.87 µM | 0.13 µM | – |

| Structure (SMILES) | EC50 [1] | CC50 at 4 days (in vitro) | EC50 [2] | EC50 [3] | EC50 (DENV-2 NGC) | CC50 (in vitro) |
| --- | --- | --- | --- | --- | --- | --- |
| COc1cccc(NC(C(=O)c2nn(C)c3ccccc23)c2ccc(OC)nc2)c1 (stereo not drawn) [CPD-264] | – | > 124 µM | – | – | 0.51 µM | – |
| COc1cccc(NC(C(=O)c2c[nH]c3ccccc23)c2cncnc2)c1 (stereo not drawn) [CPD-029] | 2.82 µM | 65 µM | – | – | 0.84 µM | – |
| COc1cccc(NC(C(=O)c2c[nH]c3ccccc23)c2nccn2C)c1 (stereo not drawn) [CPD-026] | – | > 138 µM | – | – | 17.2 µM | – |
| COc1cccc(NC(C(=O)c2c[nH]c3ccccc23)c2cn3cc(F)ccc3n2)c1 (stereo not drawn) [CPD-110] | – | 73 µM | – | – | 0.58 µM | – |
| NS(=O)(=O)c1cccc(NC(C(=O)c2c[nH]c3ccccc23)c2ccccc2)c1 (stereo not drawn) [CPD-187] | – | 58 µM | – | – | 3.18 µM | – |
| COc1cccc(N2C(=O)CN(C)n3cc(c4ccccc43)C(=O)C2c2ccccc2)c1 (stereo not drawn) [CPD-115] | – | 49 µM | – | – | 10.6 µM | – |
| COc1cccc(NC(C(=O)c2c[nH]c3ccccc23)c2cn3cc(C)ccc3n2)c1 (stereo not drawn) [CPD-098] | – | > 121 µM | – | – | 10.7 µM | – |
| COc1cc(NC(C(=O)c2c[nH]c3c(CCO)cccc23)c2ccc(F)cc2)cc(OC)c1 (stereo not drawn) [CPD-371] | – | 12 µM | – | – | 0.03 µM | – |
| COc1cc(NC(C(=O)c2c[nH]c3ccccc23)c2ccccc2)ccc1F (stereo not drawn) [CPD-356] | – | 13 µM | – | – | 0.12 µM | – |
| COc1cc(NC(C(=O)c2c[nH]c3cc(Cl)ccc23)c2ccccc2)ccn1 (stereo not drawn) [CPD-073] | – | 76 µM | – | – | 2.35 µM | – |
| COc1cccc(NC(C(=O)c2c[nH]c3ccc(CO)cc23)c2ccccc2)c1 (stereo not drawn) [CPD-219] | – | 86 µM | – | 22.1 µM | 0.52 µM | – |
| COc1cc(NC(C(=O)c2c[nH]c3cc(C#N)ccc23)c2ccccc2)ccn1 (stereo not drawn) [CPD-093] | – | 87 µM | – | – | 16.8 µM | – |
| COc1cncc(NC(C(=O)c2c[nH]c3ccccc23)c2cccnc2)n1 (stereo not drawn) [CPD-280] | – | > 139 µM | – | – | 0.78 µM | – |
| COc1cc(NC(C(=O)c2c[nH]c3ccccc23)c2ccccc2)cc(C(F)(F)F)c1 (stereo not drawn) [CPD-014] | – | 8 µM | – | – | 0.02 µM | – |
| COc1cc(NC(C(=O)c2c[nH]c3ccccc23)c2cccnc2)cc(OCCO)c1 (stereo not drawn) [CPD-343] | – | > 119 µM | – | 3.11 µM | 0.19 µM | – |
| O=C(c1c[nH]c2ccccc12)C(Nc1ccnc(F)c1)c1ccccc1 (stereo not drawn) [CPD-207] | – | 16 µM | – | – | 3.83 µM | – |
| COc1cc(CN(C)C)cc(NC(C(=O)c2c[nH]c3ccccc23)c2ccccc2)c1 (stereo not drawn) [CPD-263] | – | 13 µM | – | – | 2.18 µM | – |
| COc1cccc(NC(C(=O)c2c[nH]c3cc(N4CCOCC4)ccc23)c2ccccc2)c1 (stereo not drawn) [CPD-237] | – | > 113 µM | 8.31 µM | – | 1.35 µM | – |
